Test results published in paper PMC4503722, “Novel Phenotypic Outcomes Identified for a Public Collection of Approved Drugs from a Publicly Accessible Panel of Assays” (PLoS ONE, 2015).
Like-named read-outs stand apart in the source and are kept apart here.

How the values were obtained:
Experiment in all cases: cells
HCT116 = format: cell-based
[1] = system: endothelial tube formation in co-cultures of ECFCs and ADSCs treated with VEGF; format: cell-based, human
[2] = system: HCT116 cells treated with a GSK3β inhibitor; format: cell-based
SW480 = format: cell-based
DLD-1 = format: cell-based
Colo320 = format: cell-based
INS-1E cells = format: cell-based, rat
RKO = format: cell-based
HT-29 = format: cell-based
[3] = system: nuclear β-catenin in C2C12 cells; format: cell-based
HeLa cells = format: cell-based; details: read-out: CellCycle G2/M
NCI-H716 cells = format: cell-based, Human
SNU-C1 = format: cell-based
[4] = basal, HCT116, read-out: Basal_Viability ATP HCT116
[5] = HCT116 pretreated with GSK3b inhibitor, read-out: GSK3b inh pretreated_Viability ATP HCT116
[6] = basal, SW480, read-out: Basal_Viability ATP SW480
[7] = basal, DLD-1, read-out: Basal_Viability ATP DLD-1
[8] = basal; Colo 320; read-out: Basal_Viability ATP Colo 320
[9] = S2 Table; module primary assay; 20 / 20.1 codes per legend; read-out: Insulin Secretion
[10] = basal; RKO; read-out: Basal_Viability ATP RKO
[11] = basal; HT-29; read-out: Basal_Viability ATP HT-29
[12] = S2 Table; module primary assay; 20 / 20.1 codes per legend; read-out: Wnt Pathway
[13] = basal, SNU-C1, read-out: Basal_Viability ATP SNU-C1
[14] = Homo sapiens, HCT-116, read-out: Basal_Viability ATP HCT116
[15] = Homo sapiens, read-out: Anti-Angiogenesis
[16] = Homo sapiens, HCT-116, read-out: GSK3b inh pretreated_Viability ATP HCT116
[17] = Homo sapiens, SW480, read-out: Basal_Viability ATP SW480
[18] = Homo sapiens, DLD-1, read-out: Basal_Viability ATP DLD-1
[19] = Homo sapiens, COLO 320, read-out: Basal_Viability ATP Colo 320
[20] = Rattus norvegicus, INS-1E, read-out: Insulin Secretion
[21] = Homo sapiens, RKO, read-out: Basal_Viability ATP RKO
[22] = Homo sapiens, HT-29, read-out: Basal_Viability ATP HT-29
[23] = Mus musculus, C2C12, read-out: Wnt Pathway
[24] = Homo sapiens, NCI-H716, read-out: GLP 1 Secretion
[25] = Homo sapiens, SNU-C1, read-out: Basal_Viability ATP SNU-C1
[26] = Homo sapiens, HCT-116, HCT116 pretreated with GSK3b inhibitor, read-out: GSK3b inh pretreated_Viability ATP HCT116
[27] = Homo sapiens; basal; Colo 320; read-out: Basal_Viability ATP Colo 320
[28] = Homo sapiens, HeLa, S2 Table, HeLa, 20 = no response at highest concentration
[29] = Homo sapiens, NCI-H716; read-out: GLP 1 Secretion
[30] = Homo sapiens, HCT-116, basal, HCT116, read-out: Basal_Viability ATP HCT116
[31] = Homo sapiens, SW480, basal, SW480, read-out: Basal_Viability ATP SW480
[32] = Homo sapiens, DLD-1, basal, DLD-1, read-out: Basal_Viability ATP DLD-1
[33] = Rattus norvegicus, INS-1E; read-out: Insulin Secretion
[34] = Homo sapiens; basal; HT-29; read-out: Basal_Viability ATP HT-29
[35] = Homo sapiens, SNU-C1, basal, SNU-C1, read-out: Basal_Viability ATP SNU-C1

## Fc1ccc(C(OCCN2CCN(CCCc3ccccc3)CC2)c2ccc(F)cc2)cc1
HCT116; [4]
  IC50: 4870 nM
[1]; S2 Table; module primary assay; 20 = no response at highest concentration, 20.1 = inactive in single concentration testing; read-out: Anti-Angiogenesis
  IC50: > 10000 nM
[2]; [5]
  IC50: 2850 nM
SW480; [6]
  IC50: 2070 nM
DLD-1; [7]
  IC50: 903 nM
Colo320; [8]
  IC50: > 20000 nM
INS-1E cells; [9]
  EC50: > 10000 nM
RKO; [10]
  IC50: 113 nM
HT-29; [11]
  IC50: 1490 nM
[3]; [12]
  EC50: > 10000 nM
HeLa cells; S2 Table, HeLa, 20 = no response at highest concentration
  EC50: > 10000 nM
NCI-H716 cells; S2 Table; module primary assay; 20 / 20.1 codes per legend; read-out: GLP 1 Secretion
  EC50: > 10000 nM
SNU-C1; [13]
  IC50: 1820 nM

## CCC(COC(=O)c1cc(OC)c(OC)c(OC)c1)(c1ccccc1)N(C)C (stereo not shown)
HCT116; read-out: Basal_Viability ATP HCT116
  IC50: > 20000 nM
[1]; read-out: Anti-Angiogenesis
  IC50: > 10000 nM
[2]; read-out: GSK3b inh pretreated_Viability ATP HCT116
  IC50: 1620 nM
SW480; read-out: Basal_Viability ATP SW480
  IC50: > 20000 nM
DLD-1; read-out: Basal_Viability ATP DLD-1
  IC50: > 20000 nM
Colo320; read-out: Basal_Viability ATP Colo 320
  IC50: > 20000 nM
INS-1E cells; read-out: Insulin Secretion
  EC50: > 10000 nM
RKO; read-out: Basal_Viability ATP RKO
  IC50: 142 nM
HT-29; read-out: Basal_Viability ATP HT-29
  IC50: > 20000 nM
[3]; read-out: Wnt Pathway
  EC50: > 10000 nM
HeLa cells
  EC50: > 10000 nM
NCI-H716 cells; read-out: GLP 1 Secretion
  EC50: > 10000 nM
SNU-C1; read-out: Basal_Viability ATP SNU-C1
  IC50: 2450 nM

## O=Cc1ccc(O)c(O)c1O [2,3,4-Trihydroxybenzaldehyde]
HCT116; [14]
  IC50: > 20000 nM
[1]; [15]
  IC50: > 10000 nM
[2]; [16]
  IC50: 141 nM
SW480; [17]
  IC50: 11300 nM
DLD-1; [18]
  IC50: > 20000 nM
Colo320; [19]
  IC50: 9080 nM
INS-1E cells; [20]
  EC50: > 10000 nM
RKO; [21]
  IC50: 6230 nM
HT-29; [22]
  IC50: > 20000 nM
[3]; [23]
  EC50: > 10000 nM
HeLa cells; Homo sapiens, HeLa
  EC50: > 10000 nM
NCI-H716 cells; [24]
  EC50: > 10000 nM
SNU-C1; [25]
  IC50: > 20000 nM

## CC(=O)[O][Hg][c]1ccccc1 [Mercury, (acetato-o)phenyl-]
HCT116; [4]
  IC50: 2800 nM
[1]; read-out: Anti-Angiogenesis
  IC50: 530 nM
[2]; [5]
  IC50: 360 nM
SW480; [6]
  IC50: 543 nM
DLD-1; [7]
  IC50: 736 nM
Colo320; [8]
  IC50: 1300 nM
INS-1E cells; [9]
  EC50: > 10000 nM
RKO; [10]
  IC50: 1200 nM
HT-29; [11]
  IC50: 799 nM
[3]; [12]
  EC50: > 10000 nM
NCI-H716 cells; read-out: GLP 1 Secretion
  EC50: 713 nM
SNU-C1; [13]
  IC50: 192 nM

## O=C(Nc1ccc(Oc2ccc(Cl)cc2)c(Cl)c1)c1cc(I)cc(I)c1O [Rafoxanide]
HCT116; Homo sapiens, HCT-116, basal, read-out: Basal_Viability ATP HCT116
  IC50: 16.9 nM
[1]; Homo sapiens, IC50 / EC50; endothelial tube area, ADSC/ECFC co-culture; read-out: Anti-Angiogenesis
  IC50: > 10000 nM
[2]; Homo sapiens, HCT-116, GSK3b inhibitor pretreated, read-out: GSK3b inh pretreated_Viability ATP HCT116
  IC50: 66.7 nM
SW480; Homo sapiens, SW480, basal, read-out: Basal_Viability ATP SW480
  IC50: 10.8 nM
DLD-1; Homo sapiens, DLD-1, basal, read-out: Basal_Viability ATP DLD-1
  IC50: 8.4 nM
Colo320; Homo sapiens, COLO 320; read-out: Basal_Viability ATP Colo 320
  IC50: 54 nM
INS-1E cells; Rattus norvegicus; IC50 / EC50; INS-1E; read-out: Insulin Secretion
  EC50: > 10000 nM
RKO; Homo sapiens, RKO; read-out: Basal_Viability ATP RKO
  IC50: 30.3 nM
HT-29; Homo sapiens, HT-29; read-out: Basal_Viability ATP HT-29
  IC50: 9.5 nM
[3]; Mus musculus, C2C12, IC50 / EC50; C2C12 beta-catenin translocation; read-out: Wnt Pathway
  EC50: > 10000 nM
NCI-H716 cells; Homo sapiens; IC50 / EC50; NCI-H716; read-out: GLP 1 Secretion
  EC50: 1300 nM
SNU-C1; Homo sapiens, SNU-C1, basal, read-out: Basal_Viability ATP SNU-C1
  IC50: 14.3 nM

## CN(C)c1ccc(C(=C2C=CC(=[N+](C)C)C=C2)c2ccccc2)cc1 [malachite green]
HCT116; [14]
  IC50: 17.9 nM
[1]; [15]
  IC50: 60.5 nM
[2]; [16]
  IC50: 9.83 nM
SW480; [17]
  IC50: 9.22 nM
DLD-1; [18]
  IC50: 21.8 nM
Colo320; [19]
  IC50: 161 nM
INS-1E cells; [20]
  EC50: > 10000 nM
RKO; [21]
  IC50: 118 nM
HT-29; [22]
  IC50: 9.82 nM
[3]; [23]
  EC50: 363 nM
NCI-H716 cells; [24]
  EC50: > 10000 nM
SNU-C1; [25]
  IC50: 35.4 nM

## CCC(C)(C)C(=O)O[C@H]1C[C@@H](C)C=C2C=C[C@H](C)[C@H](CC[C@@H]3C[C@@H](O)CC(=O)O3)[C@H]21 [simvastatin, reference compound]
HCT116; Homo sapiens, HCT-116, 72 h, read-out: HCT-116 viab. IC50, Table 2, basal, 72 h, Cell TiterGlo, non-adherent, 20 coded
  IC50: > 20000 nM
[2]; Homo sapiens, HCT-116, read-out: HCT-116 (GSK3β) viab. IC50, Table 2, GSK3β inhibitor LY2090314 20 nM, 72 h, Cell TiterGlo, 20 coded
  IC50: 4700 nM
[2]; [26]
  IC50: 4730 nM
SW480; Homo sapiens, SW480, 72 h, Table 2, 72 h, Cell TiterGlo, non-adherent, 20 coded, read-out: SW480 viab. IC50
  IC50: 5900 nM
SW480; [17]
  IC50: 5930 nM
DLD-1; Homo sapiens, DLD-1, 72 h, Table 2, 72 h, Cell TiterGlo, non-adherent, 20 coded, read-out: DLD-1 viab. IC50
  IC50: > 20000 nM
Colo320; Homo sapiens, COLO 320; Table 2; 72 h, Cell TiterGlo, non-adherent; 20 coded; read-out: Colo320 viab. IC50
  IC50: 4900 nM
Colo320; [27]
  IC50: 4940 nM
INS-1E cells; Rattus norvegicus, INS-1E; read-out: Ins. sec. EC50
  EC50: > 10000 nM
RKO; Homo sapiens, RKO; Table 2; 72 h, Cell TiterGlo, non-adherent; 20 coded; read-out: RKO viab. IC50
  IC50: > 20000 nM
HT-29; Homo sapiens, HT-29; Table 2; 72 h, Cell TiterGlo, non-adherent; 20 coded; read-out: HT-29 viab. IC50
  IC50: > 20000 nM
[3]; Mus musculus, C2C12, Table 2; C2C12; […]; 20 / 20.1 coded; read-out: Wnt pot. EC50
  EC50: > 10000 nM
HeLa cells; [28]
  EC50: > 10000 nM
NCI-H716 cells; [29]
  EC50: 3290 nM
NCI-H716 cells; Homo sapiens, NCI-H716; read-out: GLP1 sec. EC50
  EC50: 3300 nM
SNU-C1; Homo sapiens, SNU-C1, 72 h, Table 2, 72 h, Cell TiterGlo, non-adherent, 20 coded, read-out: SNU-C1 viab. IC50
  IC50: > 20000 nM

## COP(=S)(OC)Oc1ccc(Sc2ccc(OP(=S)(OC)OC)cc2)cc1 [temephos]
HCT116; [30]
  IC50: > 20000 nM
[1]; Homo sapiens; read-out: Anti-Angiogenesis
  IC50: > 10000 nM
[2]; [26]
  IC50: > 20000 nM
SW480; [31]
  IC50: 11.8 nM
DLD-1; [32]
  IC50: > 20000 nM
Colo320; [27]
  IC50: > 20000 nM
INS-1E cells; [33]
  EC50: > 10000 nM
RKO; [21]
  IC50: 12100 nM
HT-29; [34]
  IC50: > 20000 nM
[3]; Mus musculus, C2C12, S2 Table; module primary assay; 20 / 20.1 codes per legend; read-out: Wnt Pathway
  EC50: > 10000 nM
NCI-H716 cells; [29]
  EC50: > 10000 nM
SNU-C1; [35]
  IC50: 3030 nM

## CC[C@@]1(O)C(=O)OCc2c1cc1n(c2=O)Cc2cc3c(CN(C)C)c(O)ccc3nc2-1 [topotecan]
HCT116; [30]
  IC50: 34.1 nM
[2]; [26]
  IC50: 1.44 nM
SW480; [31]
  IC50: 233 nM
DLD-1; [32]
  IC50: 177 nM
Colo320; [19]
  IC50: 9420 nM
INS-1E cells; [33]
  EC50: > 10000 nM
RKO; Homo sapiens; basal; RKO; read-out: Basal_Viability ATP RKO
  IC50: 34.2 nM
HT-29; [34]
  IC50: 24.6 nM
[3]; Mus musculus, C2C12; read-out: Wnt Pathway
  EC50: 17.9 nM
HeLa cells; [28]
  EC50: > 10000 nM
NCI-H716 cells; [29]
  EC50: > 10000 nM
SNU-C1; [35]
  IC50: 301 nM
